The test addresses BTK (Homo sapiens (Human), UniProt Q06187). The experiment in a line: In Vitro BTK Kinase Assay: Btk-PolyGAT-LS Assay. The test is classed as biochemical. As to conditions: active BTK enzyme 0.25 nM, ATP 10 μM, polyGAT 100 nM, 30 minutes. An outline of the steps: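 Recombinant BTK (0.25 nM) phosphorylating 100 nM polyGAT at 10 μM ATP in Tris-HCl pH 7.5 buffer with MgCl2, DTT, Triton X-100 and casein, 30 min, then EDTA stop.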
BTK, sequence (Q06187 whole entry): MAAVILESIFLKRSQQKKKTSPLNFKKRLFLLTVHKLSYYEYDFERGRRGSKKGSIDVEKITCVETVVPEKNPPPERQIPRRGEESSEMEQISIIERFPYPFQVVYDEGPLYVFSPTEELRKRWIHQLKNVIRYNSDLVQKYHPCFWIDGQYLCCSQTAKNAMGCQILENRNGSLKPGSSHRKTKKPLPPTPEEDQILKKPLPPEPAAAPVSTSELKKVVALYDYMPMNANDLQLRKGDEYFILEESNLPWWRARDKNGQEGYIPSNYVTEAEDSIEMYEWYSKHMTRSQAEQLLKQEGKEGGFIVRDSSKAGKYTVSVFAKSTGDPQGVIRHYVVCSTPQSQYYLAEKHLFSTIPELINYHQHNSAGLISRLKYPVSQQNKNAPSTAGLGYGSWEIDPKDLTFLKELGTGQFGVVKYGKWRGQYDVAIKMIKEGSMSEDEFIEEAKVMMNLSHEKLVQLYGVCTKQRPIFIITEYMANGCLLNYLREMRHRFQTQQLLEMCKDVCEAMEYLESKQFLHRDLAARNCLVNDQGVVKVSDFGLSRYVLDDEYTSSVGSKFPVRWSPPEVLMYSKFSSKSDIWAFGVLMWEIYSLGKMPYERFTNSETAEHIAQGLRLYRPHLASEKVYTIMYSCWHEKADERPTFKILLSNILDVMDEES
Consider `Cc1cc(-c2ncnn3cc(-c4cnsc4)cc23)ccc1CNC(=O)c1noc(C(C)(C)C)n1` [Example 172], for which the 50% inhibitory concentration (IC50) is above 10 nM.

For `Cc1cc(-c2ncnn3cc(-c4cnsc4)cc23)ccc1CNC(=O)c1nc(C(C)(C)C)no1` [Example 173], the half-maximal inhibitory concentration (IC50) is at most 1 nM. On to `COCCN(C)c1cc2c(-c3ccc(CNC(=O)c4noc(C(C)(C)C)n4)c(C)c3)ncnn2c1` [Example 174], for which the IC50 is at most 1 nM. The compound `Cc1cc(-c2ncnn3cc(N4CCOCC4)cc23)ccc1CNC(=O)c1ccn(C(C)(C)C)n1` [Example 175] yielded an IC50 of 1 to 10 nM. Turning to `Cc1cc(-c2ncnn3cc(N4CCOCC4)cc23)ccc1CNC(=O)c1coc(C(C)(C)C)n1` [Example 176], the IC50 was in the range of 1 to 10 nM.

In turn, `Cc1cc(-c2ncnn3cc(N4CCN(C)C(=O)C4)cc23)ccc1CNC(=O)c1noc(C(C)(C)C)n1` [Example 177] gave an IC50 of at most 1 nM.

On to `CC(C)(C)c1nc(C(=O)NCc2ccc(-c3ncnn4cccc34)cc2Cl)no1` [Example 178], for which the IC50 was 1 to 10 nM. `CC(C)(C)c1nc(C(=O)NCc2ccc(-c3ncnn4cccc34)cc2C(F)(F)F)no1` [Example 179] had an IC50 of 1 to 10 nM. For the compound `COc1c(CNC(=O)c2noc(C(C)(C)C)n2)ccc(-c2ncnn3cccc23)c1F` [Example 180], the IC50 fell in the range of 1 to 10 nM. On to `CC(C)(C)c1nc(C(=O)NCc2ccc(-c3ncnn4cccc34)cc2C(F)F)no1` [Example 181], for which the IC50 was in the range of 1 to 10 nM. The result for `Cc1cc(-c2ncnn3cccc23)ccc1CNC(=O)c1ccn(C(C)(C)C)n1` [Example 182] reads above 10 nM; that for `Cc1cc(-c2ncnn3cccc23)ccc1CNC(=O)c1cnn(C(C)(C)C)c1` [Example 183], 1 to 10 nM; that for `Cc1cc(-c2ncnn3cccc23)ccc1CNC(=O)c1cn(C(C)(C)C)nn1` [Example 184], above 10 nM. On to `Cc1cc(-c2ncnn3cccc23)ccc1CNC(=O)c1nnc(C(C)(C)C)o1` [Example 185], for which the concentration for half-maximal inhibition (IC50) is above 10 nM. Compound `CC(C)(C)c1noc(C(=O)NCc2ccc(-c3ncnn4cc(N5CCOCC5)cc34)cc2C(F)(F)F)n1` [Example 186] had an IC50 of at most 1 nM. Turning to `CC(C)(C)n1cc(C(=O)NCc2ccc(-c3ncnn4cc(N5CCOCC5)cc34)cc2C(F)(F)F)nn1` [Example 187], the concentration for half-maximal inhibition (IC50) is at most 1 nM. With `COc1cc(-c2ncnn3cc(-c4cnn(C)c4)cc23)ccc1CNC(=O)c1cn(C(C)(C)C)nn1` [Example 188], the IC50 fell in the range of 1 to 10 nM. For the compound `COc1cc(-c2ncnn3cc(-c4cnn(C)c4)cc23)ccc1CNC(=O)c1nc(C(C)(C)C)no1` [Example 189], the IC50 was at most 1 nM. With `Cn1cc(-c2cc3c(-c4ccc(CNC(=O)c5nc(C(C)(C)C)no5)c(C(F)F)c4)ncnn3c2)cn1` [Example 190], the 50% inhibitory concentration (IC50) was at most 1 nM. Compound `Cn1cc(-c2cc3c(-c4ccc(CNC(=O)c5nnc(C(C)(C)C)o5)c(C(F)F)c4)ncnn3c2)cn1` [Example 191] had an IC50 of at most 1 nM. The result for `CC(C)(C)c1noc(C(=O)NCc2ccc(-c3ncnn4cc(N5CCOCC5)cc34)cc2C(F)F)n1` [Example 192] reads at most 1 nM; that for `CC(C)(C)c1nnc(C(=O)NCc2ccc(-c3ncnn4cc(N5CCOCC5)cc34)cc2C(F)F)o1` [Example 193], 1 to 10 nM.

As for `Cn1cc(-c2cc3c(-c4ccc(CNC(=O)c5nc(C(C)(C)C)no5)c(C(F)F)c4F)ncnn3c2)cn1` [Example 194], the IC50 was at most 1 nM. For `Cn1cc(-c2cc3c(-c4ccc(CNC(=O)c5cn(C(C)(C)C)nn5)c(C(F)F)c4F)ncnn3c2)cn1` [Example 195], the IC50 is 1 to 10 nM. Compound `Cn1cc(-c2cc3c(-c4ccc(CNC(=O)c5nnc(C(C)(C)C)o5)c(C(F)F)c4F)ncnn3c2)cn1` [Example 196] yielded an IC50 of at most 1 nM.

As for `COc1cc(-c2ncnn3cc(-c4cnn(C)c4)cc23)ccc1CNC(=O)c1nnc(C(C)(C)C)o1` [Example 197], the IC50 was in the range of 1 to 10 nM. Compound `CC(C)(C)c1nc(C(=O)NCc2ccc(-c3ncnn4cc(N5CCOCC5)cc34)cc2C(F)F)co1` [Example 198] gave an IC50 of at most 1 nM. Consider `CC(C)(C)c1nnc(C(=O)NCc2ccc(-c3ncnn4cc(N5CCOCC5)cc34)c(F)c2C(F)F)o1` [Example 199], for which the IC50 is 1 to 10 nM. `COc1c(CNC(=O)c2cn(C(C)(C)C)nn2)ccc(-c2ncnn3cc(-c4cnn(C)c4)cc23)c1F` [Example 200]: the IC50 is 1 to 10 nM.

`COc1c(CNC(=O)c2nnc(C(C)(C)C)o2)ccc(-c2ncnn3cc(-c4cnn(C)c4)cc23)c1F` [Example 201]: the IC50 lay within 1 to 10 nM.

As to `COc1c(CNC(=O)c2ccn(C(C)(C)C)n2)ccc(-c2ncnn3cc(N4CCOCC4)cc23)c1F` [Example 202], the IC50 lay in the range of 1 to 10 nM.

The compound `COc1c(CNC(=O)c2nc(C(C)(C)C)no2)ccc(-c2ncnn3cc(N4CCOCC4)cc23)c1F` [Example 203] came in with an IC50 of at most 1 nM.

For `C[C@@H](NC(=O)c1nnc(C(C)(C)C)o1)c1ccc(-c2ncnn3cc(N4CCOCC4)cc23)cc1Cl` [Example 204], the IC50 was 1 to 10 nM. The result for `CC(C)(C)n1cc(C(=O)NCc2ccc(-c3ncnn4cc(N5CCOCC5)cc34)cc2C2CC2)nn1` [Example 205] reads 1 to 10 nM. Regarding `CC(C)(C)c1noc(C(=O)NCc2ccc(-c3ncnn4cc(N5CCOCC5)cc34)cc2C2CC2)n1` [Example 206], the IC50 is at most 1 nM. The result for `Cn1cc(-c2cc3c(-c4ccc(CNC(=O)c5nc(C(C)(C)C)no5)c(CC(F)F)c4)ncnn3c2)cn1` [Example 207] reads at most 1 nM; that for `CC(C)(C)n1cc(C(=O)NCc2ccc(-c3ncnn4cc(C5=CCOCC5)cc34)cc2C(F)F)cn1` [Example 208], at most 1 nM. In turn, `CC(C)(C)n1cc(C(=O)NCc2ccc(-c3ncnn4cc(-c5cnn(CC(F)F)c5)cc34)cc2C(F)F)cn1` [Example 209] displayed an IC50 of at most 1 nM. Compound `CC(C)(C)c1nc(C(=O)NCc2ccc(-c3ncnn4cc(-c5cnn(CC(F)F)c5)cc34)cc2C(F)F)co1` [Example 210] gave an IC50 of at most 1 nM. Compound `Cn1cc(-c2cc3c(-c4ccc(CNC(=O)c5coc(C(C)(C)C)n5)c(C(F)F)c4)ncnn3c2)cn1` [Example 211] registered an IC50 of at most 1 nM. Turning to `Cn1cc(-c2cc3c(-c4ccc(CNC(=O)c5cnn(C(C)(C)C)c5)c(C(F)F)c4)ncnn3c2)cn1` [Example 212], the 50% inhibitory concentration (IC50) was at most 1 nM. `CC(C)(C)c1nnc(C(=O)NCc2ccc(-c3ncnn4cc(C5=CCOCC5)cc34)cc2C(F)F)o1` [Example 213] gave an IC50 of 1 to 10 nM.

As to `Cc1cc(-c2ncnn3cccc23)ccc1CNC(=O)c1nnn(C(C)(C)C)n1` [Example 214], the IC50 fell in the range of 1 to 10 nM.

In the case of `Cc1cc(-c2ncnn3cc(C(=O)N4CCOCC4)cc23)ccc1CNC(=O)c1noc(C(C)(C)C)n1` [Example 215], the IC50 is above 10 nM. Under `Cc1cc(-c2ncnn3cc(C(=O)N4CCN(C)CC4)cc23)ccc1CNC(=O)c1noc(C(C)(C)C)n1` [Example 216] stands above 10 nM; under `COC1CN(C(=O)c2cc3c(-c4ccc(CNC(=O)c5noc(C(C)(C)C)n5)c(C)c4)ncnn3c2)C1` [Example 217], at most 1 nM; under `Cc1c(CNC(=O)c2noc(C(C)(C)C)n2)ccc(-c2ncnn3cccc23)c1F` [Example 218], at most 1 nM.

`Cn1cc(-c2cc3c(-c4ccc(CNC(=O)c5noc(C(C)(C)C)n5)c(C(F)F)c4)ncnn3c2)cn1` [Example 219]: the IC50 is at most 1 nM. Regarding `CC(C)(C)c1nc(C(=O)NCc2ccc(-c3ncnn4cc(N5CCOCC5)cc34)cc2C(F)F)no1` [Example 220], the IC50 was at most 1 nM. Under `CC(C)(C)c1nc(C(=O)NCc2ccc(-c3ncnn4cc(N5CCOCC5)cc34)c(F)c2C(F)F)no1` [Example 221] stands at most 1 nM.

The compound `CC(C)(C)c1coc(C(=O)NCc2ccc(-c3ncnn4cc(N5CCOCC5)cc34)cc2C(F)F)n1` [Example 222] came in with an IC50 of 1 to 10 nM.

`COc1c(CNC(=O)c2noc(C(C)(C)C)n2)ccc(-c2ncnn3cc(N4CCOCC4)cc23)c1F` [Example 223] displayed an IC50 of at most 1 nM. In the case of `Cc1cc(-c2ncnn3cc(-c4ccc(F)cc4)cc23)ccc1CNC(=O)c1noc(C(C)(C)C)n1` [Example 224], the 50% inhibitory concentration (IC50) was at most 1 nM. `Cc1cc(-c2ncnn3cc(-c4ccc(C#N)cc4)cc23)ccc1CNC(=O)c1noc(C(C)(C)C)n1` [Example 225] came in with an IC50 of at most 1 nM.

With `Cc1cc(-c2ncnn3cc(-c4cncnc4)cc23)ccc1CNC(=O)c1noc(C(C)(C)C)n1` [Example 226], the IC50 was at most 1 nM. Compound `Cc1cc(-c2cc3c(-c4ccc(CNC(=O)c5noc(C(C)(C)C)n5)c(C)c4)ncnn3c2)ccn1` [Example 227] gave an IC50 of at most 1 nM. The compound `COc1cc(-c2cc3c(-c4ccc(CNC(=O)c5noc(C(C)(C)C)n5)c(C)c4)ncnn3c2)ccn1` [Example 228] had an IC50 of at most 1 nM. The compound `Cc1cc(-c2ncnn3cc(N4CCOCC4C)cc23)ccc1CNC(=O)c1noc(C(C)(C)C)n1` (centres unmarked) [Example 229] gave an IC50 of 1 to 10 nM. In turn, `Cc1cc(-c2ncnn3cc(-c4ccccn4)cc23)ccc1CNC(=O)c1noc(C(C)(C)C)n1` [Example 230] had an IC50 of at most 1 nM. Under `Cn1cc(-c2cc3c(-c4ccc(CNC(=O)c5noc(C(C)(C)C)n5)c(CC(F)F)c4)ncnn3c2)cn1` [Example 231] stands at most 1 nM; under `CC(C)(C)c1nc(C(=O)NCc2ccc(-c3ncnn4cc(N5CCOCC5)cc34)cc2CC(F)F)no1` [Example 232], at most 1 nM. On to `Cn1cc(-c2cc3c(-c4ccc(CNC(=O)c5noc(C(C)(C)C)n5)c(CC(F)F)c4F)ncnn3c2)cn1` [Example 233], for which the IC50 is at most 1 nM. `CC(C)(C)c1nc(C(=O)NCc2ccc(-c3ncnn4cc(N5CCOCC5)cc34)c(F)c2CC(F)F)no1` [Example 234] had a concentration for half-maximal inhibition (IC50) of 1 to 10 nM. `COc1c(CNC(=O)c2noc(C(C)(C)C)n2)ccc(-c2ncnn3cc(-c4cnn(C)c4)cc23)c1F` [Example 235] yielded an IC50 of at most 1 nM. `CCn1cc(-c2cc3c(-c4ccc(CNC(=O)c5noc(C(C)(C)C)n5)c(C)c4)ncnn3c2)cn1` [Example 236]: the half-inhibitory concentration (IC50) is at most 1 nM.

These data come from patent US12391697B2, “Condensed bi-heterocycles as inhibiting agents for Bruton's tyrosine kinase” (BIOGEN MA INC., priority 2019, dated 2025).
